The values below come from article PMC8029583 (ACS chemical biology, 2020).

The target of test [1] is T1, ComR receptor (Streptococcus mutans serotype c, UniProt Q8DWI6). Put plainly: β-galactosidase reporter activation. Format: cell-based.
Test [2] concerns the target T1, ComR receptor. The test can be described thus: β-galactosidase reporter inhibition. Format: cell-based. Particulars: SMCOM2 in CDM; primary antagonism screening (Figure S-3).

Where a SMILES comes first, the peptide text is derived from it.

Turning to `CC(C)C[C@H](NC(=O)[C@H](C)NC(=O)[C@H](Cc1c[nH]c2ccccc12)NC(=O)[C@H](Cc1c[nH]c2ccccc12)NC(=O)[C@H](C)NC(=O)[C@H](CC(C)C)NC(=O)[C@H](C)N)C(=O)O` [XIP-G1AD3AS6A (P30), ALAWWAL] (H-ALAWWAL-OH), on ComR receptor [1] (SMCOM2 in CDM, from dose response curve), the “comX activation (partial agonist)” value is reported as ~ 30%.
Turning to `CC(C)C[C@H](NC(=O)CN)C(=O)N[C@@H](CC(=O)O)C(=O)N[C@@H](Cc1c[nH]c2ccccc12)C(=O)N[C@@H](Cc1c[nH]c2ccccc12)C(=O)N[C@@H](CO)C(=O)N[C@@H](C)C(=O)O` [XIP-L7A (P8), GLDWWSA] (H-GLDWWSA-OH), on ComR receptor [2], the “inhibition of ComR activation” value is on record as ~ 80%.
For `CC(C)C[C@H](NC(=O)[C@H](CO)NC(=O)[C@H](Cc1c[nH]c2ccccc12)NC(=O)[C@H](C)NC(=O)[C@H](CC(=O)O)NC(=O)[C@H](CC(C)C)NC(=O)CN)C(=O)O` [XIP-W4A (P5), GLDAWSL] (H-GLDAWSL-OH), on ComR receptor [2], the “inhibition of ComR activation” value is recorded as ~ 90%.
For the compound GLD [XIP-Des-W4W5S6L7 (P43)], the “activity / agonism against ComR (in words)” value on ComR receptor [1] (SMCOM2 reporter in CDM) was “inactive”.
Take GLdWWSL [XIP-d3 (P10)]: the activation on ComR receptor [1] (SMCOM2 in CDM, at 100 μM concentration) is listed as ~ 45%.
